Experimental data from US6852673B2, “Herbicidal pyridine compounds” (BASF Aktiengesellschaft, priority 1998, dated 2005).

Assays:
Type in all cases: in vivo
[1] = test system: Echinochloa grus galli (ECHCG); assay: Post-emergence herbicidal evaluation, barnyard grass; conditions: rated 2 to 4 weeks after treatment
Procedure, shortened: (§1)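 Emerged seedlings receive a water-diluted acetone formulation at about 0.03 to 0.4 kg per hectare per pot and are grown on in the greenhouse. Scoring after 2–4 weeks uses a 0 (untreated-like growth) to 9 (death) scale.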

[2] = test system: Lamium purpureum (LAMPU); assay: Pre-emergence herbicidal evaluation, purple deadnettle
Procedure, shortened: (§2)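 Seeds planted in potting soil, then pots sprayed pre-emergence with aqueous acetone solution of test compound at about 0.0125 to 0.4 kg/ha. Kept under standard greenhouse care; injury rated 2 to 4 weeks after treatment.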

[3] = test system: Ipomoea hederacea (IPOHE); assay: Post-emergence herbicidal evaluation, morning glory; conditions: rated 2 to 4 weeks after treatment
Procedure, shortened: as §1

[4] = test system: Lamium purpureum (LAMPU); assay: Post-emergence herbicidal evaluation, purple deadnettle; conditions: rated 2 to 4 weeks after treatment
Procedure, shortened: as §1

[5] = test system: Glycine max (GLXMA); assay: Pre-emergence herbicidal evaluation, soyabeans
Procedure, shortened: as §2

[6] = test system: Solanum nigrum (SOLNI); assay: Pre-emergence herbicidal evaluation, black nightshade
Procedure, shortened: as §2

[7] = test system: Matricaria inodora (MATIN); assay: Post-emergence herbicidal evaluation, mayweed; conditions: rated 2 to 4 weeks after treatment
Procedure, shortened: as §1

[8] = test system: Galium aparine (GALAP); assay: Post-emergence herbicidal evaluation, cleaver; conditions: rated 2 to 4 weeks after treatment
Procedure, shortened: as §1

[9] = test system: Oryza sativum (ORYSA); assay: Pre-emergence herbicidal evaluation, rice
Procedure, shortened: as §2

[10] = test system: Stellaria media (STEME); assay: Pre-emergence herbicidal evaluation, chickweed
Procedure, shortened: as §2

[11] = test system: Matricaria inodora (MATIN); assay: Pre-emergence herbicidal evaluation, mayweed
Procedure, shortened: as §2

[12] = test system: Abutilon theophrasti (ABUTH); assay: Pre-emergence herbicidal evaluation, velvetleaf
Procedure, shortened: as §2

[13] = test system: Setaria viridis (SETVI); assay: Post-emergence herbicidal evaluation, green foxtail; conditions: rated 2 to 4 weeks after treatment
Procedure, shortened: as §1

[14] = test system: Triticum aestivum (TRZAW); assay: Post-emergence herbicidal evaluation, winter wheat; conditions: rated 2 to 4 weeks after treatment
Procedure, shortened: as §1

[15] = test system: Hordeum vulgare (HORVW); assay: Post-emergence herbicidal evaluation, winter barley; conditions: rated 2 to 4 weeks after treatment
Procedure, shortened: as §1

[16] = test system: Solanum nigrum (SOLNI); assay: Post-emergence herbicidal evaluation, black nightshade; conditions: rated 2 to 4 weeks after treatment
Procedure, shortened: as §1

[17] = test system: Ambrosia artemiisifolia (AMBEL); assay: Pre-emergence herbicidal evaluation, ragweed
Procedure, shortened: as §2

[18] = test system: Ambrosia artemiisifolia (AMBEL); assay: Post-emergence herbicidal evaluation, ragweed; conditions: rated 2 to 4 weeks after treatment
Procedure, shortened: as §1

[19] = test system: Setaria viridis (SETVI); assay: Pre-emergence herbicidal evaluation, green foxtail
Procedure, shortened: as §2

[20] = test system: Alopecurus myosuroides (ALOMY); assay: Post-emergence herbicidal evaluation, black grass; conditions: rated 2 to 4 weeks after treatment
Procedure, shortened: as §1

[21] = test system: Oryza sativum (ORYSA); assay: Post-emergence herbicidal evaluation, rice; conditions: rated 2 to 4 weeks after treatment
Procedure, shortened: as §1

[22] = test system: Abutilon theophrasti (ABUTH); assay: Post-emergence herbicidal evaluation, velvetleaf; conditions: rated 2 to 4 weeks after treatment
Procedure, shortened: as §1

[23] = test system: Triticum aestivum (TRZAW); assay: Pre-emergence herbicidal evaluation, winter wheat
Procedure, shortened: as §2

[24] = test system: Alopecurus myosuroides (ALOMY); assay: Pre-emergence herbicidal evaluation, black grass
Procedure, shortened: as §2

[25] = test system: Galium aparine (GALAP); assay: Pre-emergence herbicidal evaluation, cleaver
Procedure, shortened: as §2

[26] = test system: Zea mays (ZEAMX); assay: Post-emergence herbicidal evaluation, maize; conditions: rated 2 to 4 weeks after treatment
Procedure, shortened: as §1

CC(Cl)=CCOc1cc(C)cc(Oc2cc(C(F)(F)F)nn2C)n1 [Example 11]
8 (8 - Approaching complete kill): ECHCG rating ([1]; dose 0.03 kg/ha) | ECHCG rating ([1]; dose 0.1 kg/ha) | ECHCG rating ([1]; dose 0.4 kg/ha) | LAMPU rating ([2]; dose 0.025 kg/ha) | LAMPU rating ([2]; dose 0.1 kg/ha) | LAMPU rating ([4]; dose 0.4 kg/ha) | SOLNI rating ([6]; dose 0.1 kg/ha) | MATIN rating ([7]; dose 0.1 kg/ha) | MATIN rating ([7]; dose 0.4 kg/ha) | STEME rating ([10]; dose 0.013 kg/ha) | SETVI rating ([13]; dose 0.4 kg/ha) | SOLNI rating ([16]; dose 0.4 kg/ha) | AMBEL rating ([18]; dose 0.4 kg/ha) | SETVI rating ([19]; dose 0.025 kg/ha) | ALOMY rating ([20]; dose 0.1 kg/ha) | ALOMY rating ([20]; dose 0.4 kg/ha) | ABUTH rating ([22]; dose 0.4 kg/ha) | GALAP rating ([25]; dose 0.4 kg/ha)
superior activity: activity against Stellaria [10] | activity against Abutilon [12] | activity against Setaria [19]
9 (9 - Complete kill): LAMPU rating ([2]; dose 0.4 kg/ha) | IPOHE rating ([3]; dose 0.1 kg/ha) | IPOHE rating ([3]; dose 0.4 kg/ha) | SOLNI rating ([6]; dose 0.4 kg/ha) | GALAP rating ([8]; dose 0.1 kg/ha) | GALAP rating ([8]; dose 0.4 kg/ha) | STEME rating ([10]; dose 0.025 kg/ha) | STEME rating ([10]; dose 0.1 kg/ha) | STEME rating ([10]; dose 0.4 kg/ha) | MATIN rating ([11]; dose 0.013 kg/ha) | MATIN rating ([11]; dose 0.025 kg/ha) | MATIN rating ([11]; dose 0.1 kg/ha) | MATIN rating ([11]; dose 0.4 kg/ha) | ABUTH rating ([12]; dose 0.1 kg/ha) | ABUTH rating ([12]; dose 0.4 kg/ha) | AMBEL rating ([17]; dose 0.025 kg/ha) | AMBEL rating ([17]; dose 0.1 kg/ha) | AMBEL rating ([17]; dose 0.4 kg/ha) | SETVI rating ([19]; dose 0.1 kg/ha) | SETVI rating ([19]; dose 0.4 kg/ha) | ALOMY rating ([24]; dose 0.025 kg/ha) | ALOMY rating ([24]; dose 0.1 kg/ha) | ALOMY rating ([24]; dose 0.4 kg/ha)
3 (3 - Moderate effect): LAMPU rating ([4]; dose 0.1 kg/ha) | ORYSA rating ([9]; dose 0.4 kg/ha) | ABUTH rating ([12]; dose 0.013 kg/ha) | TRZAW rating ([14]; dose 0.03 kg/ha) | TRZAW rating ([14]; dose 0.1 kg/ha) | TRZAW rating ([14]; dose 0.4 kg/ha) | HORVW rating ([15]; dose 0.03 kg/ha) | SOLNI rating ([16]; dose 0.03 kg/ha) | AMBEL rating ([18]; dose 0.03 kg/ha) | ORYSA rating ([21]; dose 0.1 kg/ha) | GALAP rating ([25]; dose 0.025 kg/ha)
1 (1 - Trace effect): GLXMA rating ([5]; dose 0.025 kg/ha) | ORYSA rating ([9]; dose 0.013 kg/ha) | ORYSA rating ([9]; dose 0.025 kg/ha) | ORYSA rating ([21]; dose 0.03 kg/ha) | GALAP rating ([25]; dose 0.013 kg/ha)
2 (2 - Slight effect): GLXMA rating ([5]; dose 0.1 kg/ha) | ORYSA rating ([9]; dose 0.1 kg/ha) | TRZAW rating ([23]; dose 0.025 kg/ha) | TRZAW rating ([23]; dose 0.1 kg/ha) | ZEAMX rating ([26]; dose 0.03 kg/ha)
5 (5 - Definite injury): LAMPU rating ([2]; dose 0.013 kg/ha) | SOLNI rating ([6]; dose 0.013 kg/ha) | SETVI rating ([13]; dose 0.03 kg/ha) | ABUTH rating ([22]; dose 0.03 kg/ha) | ZEAMX rating ([26]; dose 0.1 kg/ha) | ZEAMX rating ([26]; dose 0.4 kg/ha)
6 (6 - Herbicidal effect): IPOHE rating ([3]; dose 0.03 kg/ha) | GALAP rating ([8]; dose 0.03 kg/ha) | SETVI rating ([13]; dose 0.1 kg/ha) | SOLNI rating ([16]; dose 0.1 kg/ha) | ALOMY rating ([20]; dose 0.03 kg/ha) | ALOMY rating ([24]; dose 0.013 kg/ha) | GALAP rating ([25]; dose 0.1 kg/ha)
quite selective: selectivity in soybeans [5]
7 (7 - Good herbicidal effect): SOLNI rating ([6]; dose 0.025 kg/ha) | MATIN rating ([7]; dose 0.03 kg/ha) | ABUTH rating ([12]; dose 0.025 kg/ha) | AMBEL rating ([17]; dose 0.013 kg/ha) | AMBEL rating ([18]; dose 0.1 kg/ha) | SETVI rating ([19]; dose 0.013 kg/ha) | ABUTH rating ([22]; dose 0.1 kg/ha)
4 (4 - Injury): GLXMA rating ([5]; dose 0.4 kg/ha) | HORVW rating ([15]; dose 0.1 kg/ha) | HORVW rating ([15]; dose 0.4 kg/ha) | ORYSA rating ([21]; dose 0.4 kg/ha) | TRZAW rating ([23]; dose 0.4 kg/ha)
0 (0 - No effect): LAMPU rating ([4]; dose 0.03 kg/ha) | GLXMA rating ([5]; dose 0.013 kg/ha) | TRZAW rating ([23]; dose 0.013 kg/ha)
